Target: Carbonic anhydrase 9 (Homo sapiens, UniProt Q16790)

SMILES | Ki [nM]
NS(=O)(=O)Nc1ccc(S(=O)(=O)Nc2ccc(S(N)(=O)=O)cc2)cc1 | 27
NS(=O)(=O)Nc1ccc(S(=O)(=O)NCCc2ccc(S(N)(=O)=O)cc2)cc1 | 65
NS(=O)(=O)Nc1ccc(S(=O)(=O)Nc2ccc(C(=O)NCCc3ccc(S(N)(=O)=O)cc3)cc2)cc1 | 0.4
CC(=O)Nc1ccc(S(=O)(=O)Nc2ccc(C(=O)NCCc3ccc(S(N)(=O)=O)cc3)cc2)cc1 | 4.5

Further compounds by falling Ki, results first:

Ki [nM] | SMILES
611 | NS(=O)(=O)NCCc1ccc(S(N)(=O)=O)cc1
65 | NS(=O)(=O)NCc1ccc(S(N)(=O)=O)cc1
64 | NS(=O)(=O)Nc1ccc(S(N)(=O)=O)cc1
57 | NS(=O)(=O)Nc1ccc(S(=O)(=O)Nc2ccc(C(=O)O)cc2)cc1
35 | NS(=O)(=O)Nc1ccc(S(=O)(=O)NCc2ccc(S(N)(=O)=O)cc2)cc1
